# Measured values from publication PMC4139061, “Structural basis of nucleoside and nucleoside drug selectivity by concentrative nucleoside transporters” (eLife, 2014).
# “And” between values parts separate entries of the source, which are not always exact repeats. Equal values may be shown once.
# Experiments:
# vcCNT [1] = target: T1, vcCNT (Vibrio cholerae, UniProt Q9KPL5); experiment: biochemical; assay type: binding
# Description: The fluorescence anisotropy after each addition was measured. Each titration was performed at least three times. The data for the three titrations were simultaneously fit to a one-site competitive binding model based off of Wang's method ([Wang, 1995]) using nonlinear least-squares analysis in GraphPad Prism to obtain a dissociation constant and standard error.
# hCNT1 = target: T2, hCNT1 (Homo sapiens, UniProt O00337); experiment: two-electrode voltage-clamp of Na+ currents / total charge in Xenopus oocytes expressing hCNT1; assay type: cell-based; conditions: 200 μM nucleoside; hCNT1-expressing Xenopus oocytes; mean of Exp. 1-11
# T2 sequence (O00337 1-649): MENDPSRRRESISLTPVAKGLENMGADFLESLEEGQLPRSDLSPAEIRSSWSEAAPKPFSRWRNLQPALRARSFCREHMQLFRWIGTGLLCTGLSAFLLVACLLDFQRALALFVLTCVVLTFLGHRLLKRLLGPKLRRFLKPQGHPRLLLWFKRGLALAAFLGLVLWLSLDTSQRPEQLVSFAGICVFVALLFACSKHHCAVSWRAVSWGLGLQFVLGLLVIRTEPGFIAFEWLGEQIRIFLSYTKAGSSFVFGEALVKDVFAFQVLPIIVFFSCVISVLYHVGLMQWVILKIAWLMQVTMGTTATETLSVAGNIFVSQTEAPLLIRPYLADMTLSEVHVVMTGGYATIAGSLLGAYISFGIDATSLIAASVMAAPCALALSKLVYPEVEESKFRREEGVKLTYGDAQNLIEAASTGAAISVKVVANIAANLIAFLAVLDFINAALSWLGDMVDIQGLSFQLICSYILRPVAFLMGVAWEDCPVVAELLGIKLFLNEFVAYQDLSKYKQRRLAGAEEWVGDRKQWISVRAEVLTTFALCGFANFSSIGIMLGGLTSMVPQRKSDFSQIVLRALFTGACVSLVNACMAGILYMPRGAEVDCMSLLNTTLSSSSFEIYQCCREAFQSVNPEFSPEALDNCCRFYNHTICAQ
# Description: (§1) To detect nucleoside transport by hCNTs, we turned to two-electrode voltage-clamp electrophysiological recording. Because hCNTs are Na^+-nucleoside symporters, one can measure the current generated by the Na^+ transport that is coupled with nucleoside transport. We injected Xenopus oocytes with mRNA coding for each of the hCNTs and measured inward Na^+ currents elicited by the addition of different nucleosides to the extracellular side.
# (§2) The genes coding for the three hCNTs and vcCNT were cloned into a pGEM-HE vector. Plasmids were linearized using either SphI or NheI, and mRNA was transcribed using the mMESSAGE mMACHINE T7 Transcription Kit (Ambion, Grand Island, NY). Defolliculated Xenopus laevis oocytes were purchased from Ecocyte Bioscience (Austin, TX). Individual oocytes were injected with 40 ng of mRNA using a 10-μl microdispenser (Drummond Scientific, Broomall, PA) fitted with a tapered glass pipette tip and incubated at 17 °C for 4–5 days in ND96 buffer (96 mM NaCl, 2 mM KCl, 1 mM MgCl2, 1.8 mM CaCl2, and 5 mM HEPES pH 7.5) with 0.1% penicillin and streptomycin before recording.
# (§3) The oocyte-recording chamber was gravity-perfused with ND96 buffer at a rate of 2 ml/min. Membrane currents were measured using an Oocyte Clamp (OC-725C; Warner Instruments, Hamden, CT). Individual oocytes were penetrated with two microelectrodes filled with 3 M KCl (0.5–1.0 MΩ). All electrophysiological experiments were conducted at room temperature. The OC-725C Oocyte Clamp was computer-interfaced via an Axon Digidata 1550 and controlled by Axoscope software (Molecular Devices, Sunnyvale, CA). The current signals were filtered at 20 Hz and sampled at intervals of 20 ms. The signals were filtered at 0.5 Hz by use of pCLAMP 10.4 software for data presentation. […] Cells were discarded if resting membrane potentials were unstable or more positive than −30 mV. Oocyte membrane potentials were clamped at −90 mV for holding potentials to measure transporter-generated currents. All data are shown as means ± SEM.
# hCNT1 (353V/424L) = hCNT1 (353V/424L) (Homo sapiens, UniProt O00337, L353V/V424L); experiment: two-electrode voltage-clamp total charge in Xenopus oocytes expressing hCNT1 (353V/424L); assay type: cell-based; conditions: 400 μM nucleoside, hCNT1 (353V/424L)-expressing Xenopus oocytes
# Description: (§4) Figure 6. […] (A) Model of hCNT3 nucleo-pocket. […] (B) Model of hCNT1 nucleo-pocket. […] (C) Hypothetical alternating-access mechanism of vcCNT. A cartoon representation of the different conformational states along the transport cycle is depicted. The transport domain (including HP1, HP2, TM4b, and TM7b) and TM6 are shown as cylinders. […] The nucleo-pocket in the inward-occluded conformation (bottom right) is located between TM6 and TM4 and is marked with a green star. The inward-occluded conformation is derived from the crystal structures of vcCNT. All other conformations are purely hypothetical. The transition between inward- and outward-facing conformations has been proposed to be achieved by a rigid-body movement of the transport domain across TM6 ([Johnson et al., 2012]). Extracellular and intracellular gating likely involves slight rearrangements of HP2/TM4b and HP1/TM7b, respectively. […] See Figure 6—source data 1 for total charge source data. DOI: http://dx.doi.org/10.7554/eLife.03604.024 Figure 6—source data 1. Total charge data. Total charge transported (μC) was calculated as the area under the curve of the current trace after application of the indicated nucleoside to hCNT-expressing Xenopus oocytes. Each row represents a separate experiment done using a different oocyte. The ratios of the total charge transported for the nucleosides are shown in the last columns.
# as §2
# The oocyte-recording chamber was gravity-perfused with ND96 buffer at a rate of 2 ml/min. Membrane currents were measured using an Oocyte Clamp (OC-725C; Warner Instruments, Hamden, CT). Individual oocytes were penetrated with two microelectrodes filled with 3 M KCl (0.5–1.0 MΩ). All electrophysiological experiments were conducted at room temperature. The OC-725C Oocyte Clamp was computer-interfaced via an Axon Digidata 1550 and controlled by Axoscope software (Molecular Devices, Sunnyvale, CA). The current signals were filtered at 20 Hz and sampled at intervals of 20 ms.
# hCNT2 = hCNT2 (Homo sapiens, UniProt O43868); experiment: two-electrode voltage-clamp of Na+ currents in Xenopus oocytes expressing hCNT2; assay type: cell-based; conditions: data not shown
# Description: as §1, §2
# The oocyte-recording chamber was gravity-perfused with ND96 buffer at a rate of 2 ml/min. Membrane currents were measured using an Oocyte Clamp (OC-725C; Warner Instruments, Hamden, CT). Individual oocytes were penetrated with two microelectrodes filled with 3 M KCl (0.5–1.0 MΩ). […]
# hCNT3 (375L/446V) = hCNT3 (375L/446V) (Homo sapiens, UniProt Q9HAS3, L446V/V375L); experiment: two-electrode voltage-clamp total charge in Xenopus oocytes expressing hCNT3 (375L/446V); assay type: cell-based; conditions: 400 μM nucleoside; hCNT3 (375L/446V)-expressing Xenopus oocytes; mean of Exp. 1-11
# Description: In the paradigm of the alternating-access mechanism of sodium-coupled symporters ([Krishnamurthy et al., 2009]), substrate release is achieved by the transition from the inward-facing occluded to the inward-facing open state (Figure 6C).
# as §4
# The genes coding for the three hCNTs and vcCNT were cloned into a pGEM-HE vector. Plasmids were linearized using either SphI or NheI, and mRNA was transcribed using the mMESSAGE mMACHINE T7 Transcription Kit (Ambion, Grand Island, NY). […]
# The oocyte-recording chamber was gravity-perfused with ND96 buffer at a rate of 2 ml/min. Membrane currents were measured using an Oocyte Clamp (OC-725C; Warner Instruments, Hamden, CT). […]
# hCNT3 = target: T3, hCNT3 (Homo sapiens, UniProt Q9HAS3); experiment: two-electrode voltage-clamp of Na+ currents / total charge in Xenopus oocytes expressing hCNT3; assay type: cell-based
# T3 sequence (Q9HAS3 1-691): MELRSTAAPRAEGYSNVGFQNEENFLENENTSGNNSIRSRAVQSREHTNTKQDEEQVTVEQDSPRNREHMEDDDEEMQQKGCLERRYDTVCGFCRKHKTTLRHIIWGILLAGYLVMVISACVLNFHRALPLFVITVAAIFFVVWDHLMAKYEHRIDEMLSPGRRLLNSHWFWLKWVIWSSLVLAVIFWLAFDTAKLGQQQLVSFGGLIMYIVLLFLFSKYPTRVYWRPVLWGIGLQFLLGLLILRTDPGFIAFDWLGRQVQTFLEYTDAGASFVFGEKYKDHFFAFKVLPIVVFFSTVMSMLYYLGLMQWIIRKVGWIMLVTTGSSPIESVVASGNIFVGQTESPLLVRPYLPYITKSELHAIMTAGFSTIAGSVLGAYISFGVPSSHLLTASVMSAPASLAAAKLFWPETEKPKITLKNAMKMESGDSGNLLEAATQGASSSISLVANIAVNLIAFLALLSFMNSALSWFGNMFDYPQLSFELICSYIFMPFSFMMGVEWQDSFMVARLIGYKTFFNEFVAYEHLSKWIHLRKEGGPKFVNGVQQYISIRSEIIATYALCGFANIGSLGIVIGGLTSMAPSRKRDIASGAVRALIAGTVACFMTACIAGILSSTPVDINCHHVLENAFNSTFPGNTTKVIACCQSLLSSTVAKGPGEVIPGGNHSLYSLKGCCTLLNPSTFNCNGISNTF
# Description: as §1, §2, §3
# hCNTs = conditions: cited from earlier work
# vcCNT [2] = target: T1, vcCNT; experiment: biochemical; assay type: binding; conditions: KD
# Sequence of hCNT1 (353V/424L) (O00337 whole entry L353V/V424L, the tested form may be a part): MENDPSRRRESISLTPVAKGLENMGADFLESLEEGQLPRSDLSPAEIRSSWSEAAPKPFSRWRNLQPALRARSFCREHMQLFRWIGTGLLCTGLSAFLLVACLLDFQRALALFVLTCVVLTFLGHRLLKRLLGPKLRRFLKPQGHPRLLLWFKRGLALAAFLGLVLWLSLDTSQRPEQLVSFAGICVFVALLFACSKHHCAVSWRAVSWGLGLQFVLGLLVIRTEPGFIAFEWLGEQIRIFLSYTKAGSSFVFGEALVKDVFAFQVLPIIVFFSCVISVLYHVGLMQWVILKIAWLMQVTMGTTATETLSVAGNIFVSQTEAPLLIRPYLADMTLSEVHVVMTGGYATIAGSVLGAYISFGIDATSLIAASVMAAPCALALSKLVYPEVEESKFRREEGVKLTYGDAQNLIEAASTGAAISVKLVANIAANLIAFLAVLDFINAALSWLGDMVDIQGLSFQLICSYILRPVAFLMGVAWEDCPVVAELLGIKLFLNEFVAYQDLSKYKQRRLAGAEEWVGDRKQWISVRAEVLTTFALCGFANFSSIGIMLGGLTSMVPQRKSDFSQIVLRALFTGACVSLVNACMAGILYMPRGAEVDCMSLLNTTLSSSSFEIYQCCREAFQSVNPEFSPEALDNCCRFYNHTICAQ
# T1 sequence (Q9KPL5 entry or part of it): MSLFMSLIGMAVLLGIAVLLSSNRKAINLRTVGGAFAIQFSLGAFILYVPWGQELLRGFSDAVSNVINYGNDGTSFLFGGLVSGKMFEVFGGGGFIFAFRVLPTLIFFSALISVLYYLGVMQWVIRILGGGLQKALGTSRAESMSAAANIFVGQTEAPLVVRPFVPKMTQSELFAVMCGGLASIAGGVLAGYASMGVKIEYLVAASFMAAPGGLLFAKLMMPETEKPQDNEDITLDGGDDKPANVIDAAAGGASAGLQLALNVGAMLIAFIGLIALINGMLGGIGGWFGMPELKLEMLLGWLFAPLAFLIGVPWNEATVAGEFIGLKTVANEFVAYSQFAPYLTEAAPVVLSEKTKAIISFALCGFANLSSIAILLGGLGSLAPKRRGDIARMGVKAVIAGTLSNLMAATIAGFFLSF
# Sequence of hCNT3 (375L/446V) (Q9HAS3 whole entry V375L/L446V): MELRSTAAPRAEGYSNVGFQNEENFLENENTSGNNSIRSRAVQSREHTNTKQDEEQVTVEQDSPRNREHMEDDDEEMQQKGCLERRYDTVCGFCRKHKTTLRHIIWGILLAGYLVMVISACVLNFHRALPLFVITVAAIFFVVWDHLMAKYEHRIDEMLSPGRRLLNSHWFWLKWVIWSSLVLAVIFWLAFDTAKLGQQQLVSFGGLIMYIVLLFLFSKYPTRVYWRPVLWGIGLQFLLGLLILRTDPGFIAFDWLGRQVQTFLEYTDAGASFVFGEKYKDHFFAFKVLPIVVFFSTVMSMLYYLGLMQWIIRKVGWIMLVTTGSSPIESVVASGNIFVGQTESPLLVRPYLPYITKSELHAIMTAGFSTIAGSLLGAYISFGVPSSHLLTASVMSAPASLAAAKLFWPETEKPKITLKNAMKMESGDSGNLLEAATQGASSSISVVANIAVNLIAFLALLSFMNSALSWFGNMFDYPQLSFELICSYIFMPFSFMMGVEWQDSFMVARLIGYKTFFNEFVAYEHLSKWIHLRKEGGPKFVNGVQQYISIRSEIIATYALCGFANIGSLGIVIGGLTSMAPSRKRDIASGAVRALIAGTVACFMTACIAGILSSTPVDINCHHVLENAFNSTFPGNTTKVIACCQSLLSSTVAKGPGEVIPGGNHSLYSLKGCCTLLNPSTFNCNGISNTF
# Sequence of hCNT2 (O43868 whole entry): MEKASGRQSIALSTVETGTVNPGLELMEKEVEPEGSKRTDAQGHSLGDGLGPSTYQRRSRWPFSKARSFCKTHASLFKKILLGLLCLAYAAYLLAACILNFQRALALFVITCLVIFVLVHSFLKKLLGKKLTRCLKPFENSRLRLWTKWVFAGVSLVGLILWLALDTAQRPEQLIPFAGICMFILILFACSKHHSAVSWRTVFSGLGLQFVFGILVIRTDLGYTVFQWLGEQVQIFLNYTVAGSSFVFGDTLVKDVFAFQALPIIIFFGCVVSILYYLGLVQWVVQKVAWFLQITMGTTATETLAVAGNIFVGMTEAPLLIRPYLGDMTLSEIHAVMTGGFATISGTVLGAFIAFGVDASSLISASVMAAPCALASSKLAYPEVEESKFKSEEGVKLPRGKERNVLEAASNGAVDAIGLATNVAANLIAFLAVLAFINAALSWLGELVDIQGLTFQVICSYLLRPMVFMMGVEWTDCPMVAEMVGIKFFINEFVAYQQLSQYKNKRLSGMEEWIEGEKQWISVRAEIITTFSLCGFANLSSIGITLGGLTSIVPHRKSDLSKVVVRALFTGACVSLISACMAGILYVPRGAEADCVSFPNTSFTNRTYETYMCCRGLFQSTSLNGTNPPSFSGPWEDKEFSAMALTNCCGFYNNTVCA
structure (smiles),measurement,setting,value
NC(=O)c1ncn([C@@H]2O[C@H](CO)[C@@H](O)[C@H]2O)n1 [ribavirin],Kd,vcCNT [1],1530 µM
C[C@H]1O[C@@H](n2ccc(=O)[nH]c2=O)[C@H](O)[C@@H]1O [5'-deoxyuridine],Kd,vcCNT [1],> 2800 µM
Nc1ccn([C@@H]2O[C@H](CO)[C@@H](O)C2(F)F)c(=O)n1 [gemcitabine],KD higher than that for cytidine,vcCNT [1],~22 fold
same,"Total charge transported, Mean",hCNT1,0.127 μC
same,"Total charge transported, Mean",hCNT1 (353V/424L); mean of Exp. 1-8,0.692 μC
same,Total charge transported,"hCNT1 (353V/424L); single oocyte, listed as Gem",0.743 μC and 0.542 μC and 0.572 μC and 0.858 μC and 0.563 μC and 0.586 μC and 0.813 μC
same,transport by hCNT2,hCNT2,transported neither compound
same,"Total charge transported, Mean",hCNT3 (375L/446V),5.697 μC
same,"Total charge transported, Mean","hCNT3; 200 μM nucleoside, hCNT3-expressing Xenopus oocytes, mean of Exp. 1-14",7.084 μC
same,Na+ current on addition of nucleoside,"hCNT3; hCNT3-expressing oocytes, 200 μM",induced Na^+ currents
Nc1ccn([C@@H]2O[C@H](CO)[C@@H](O)[C@@H]2O)c(=O)n1 [cytarabine],binding and transport by hCNTs,"hCNTs; ref Clarke et al., 2006",no significant binding and transport
O=c1[nH]c(=O)n([C@@H]2O[C@H](CO)[C@@H](O)[C@H]2O)cc1F [5-fluorouridine],Kd,vcCNT [1],16 ± 1 µM
same,KD lower than the KD for uridine,"vcCNT [1]; fold, vcCNT",twofold
Cc1cn([C@@H]2O[C@H](CO)[C@@H](O)[C@H]2O)c(=O)[nH]c1=O [5-methyluridine],Kd,vcCNT [1],61 ± 7 µM
Cn1c(=O)ccn([C@@H]2O[C@H](CO)[C@@H](O)[C@H]2O)c1=O [3-methyluridine],Kd,vcCNT [1],520 ± 80 µM
Nc1ncnc2c1ncn2[C@@H]1O[C@H](CO)[C@@H](O)[C@H]1O [adenosine],Kd,vcCNT [1],470 ± 100 µM
O=c1[nH]c(=O)n([C@@H]2O[C@H](CO)[C@@H](O)[C@H]2O)cc1Cl [5-chlorouridine],Kd,vcCNT [1],14 ± 1 µM
O=c1ccn([C@@H]2O[C@H](CO)C[C@H]2O)c(=O)[nH]1 [3′-deoxyuridine],Kd,vcCNT [1],> 2800 µM
O=c1[nH]c(=O)n([C@@H]2O[C@H](CO)[C@@H](O)[C@H]2O)cc1I [5-iodouridine],Kd,vcCNT [1],58 ± 5 µM
O=c1ccn([C@@H]2O[C@H](CO)[C@@H](O)[C@H]2O)c(=O)[nH]1 [uridine],Km,"hCNTs; reported Km values, ref Molina-Arcas et al., 2009",22 to 80 µM
O=c1ccn([C@H]2C[C@H](O)[C@@H](CO)O2)c(=O)[nH]1 [2′-deoxyuridine],Kd,vcCNT [1],170 ± 10 µM
"Cc1cc2cn([C@@H]3O[C@H](CO)[C@@H](O)[C@H]3O)c(=O)nc2[nH]1 [pyrrolo-cytidine, reference compound]",Kd,vcCNT [2],0.9 µM and 0.94 µM
O=c1ncccn1[C@@H]1O[C@H](CO)[C@@H](O)[C@H]1O [zebularine],Kd,vcCNT [1],120 ± 5 µM
same,loss of binding affinity relative to uridine,"vcCNT [1]; fold, vcCNT",threefold
